In patent US20100004131A1, “SOLID FORMULATIONS OF HYDROGEN CYANAMIDE FOR AGRICULTURAL APPLICATIONS” (Metbro Distributing, L.P., priority 2007, published 2010):

Key:
Type in all cases: in vivo
Conditions in all cases: applied in granular form; pre-plant and final test results collectively
Dorylaimida nematodes = assay: Nematicidal activity of granules in infested silt loam pots: Dorylaimida nematodes
Method: (§1) The soil used in this study was naturally infested with three species of nematodes, one of which was deleterious, and the other two beneficial, and observations were made of both the survival of the nematodes and the growth of the soybean plants.
(§2) The hydrogen cyanamide granules were prepared by impregnating PROFILE granules (15 mesh) with DORMEX (50% hydrogen cyanamide in aqueous solution with phosphate buffer), and drying the moist granules on trays at 20° C. for 24 hours to achieve granules containing hydrogen cyanamide at a concentration of 25% by weight. Planting pots measuring 10 cm in diameter were used. Each pot contained 1 kg of silt loam from a cotton field, pH 6.2, CEC<10 meq/100 g soil, organic matter<1.0%, the soil being severely infested with the deleterious reniform nematode (Rotylenchulus reniformis). […]
(§3) After the polyethylene bags were removed, each pot was planted with Hutcheson soybean seeds at 5 seeds per pot, and the seeds were allowed to germinate and the plants to grow for 39 days. […] The number of surviving nematodes in each pot were determined, as were the number of nematodes in the root systems, the weights of both the fresh shoots and the roots, and the shoot height. […] Fischer's Least Significant Difference at p 0.05 was calculated when appropriate. […]

[1] = tested on: reniform nematode (Rotylenchulus reniformis); assay: Nematicidal activity of granules in infested silt loam pots: reniform nematodes
Method: as §1, §2, §3

[2] = tested on: microbivorous (beneficial) nematodes; assay: Nematicidal activity of granules in infested silt loam pots: microbivorous nematodes
Method: as §1, §2, §3

N#CN [hydrogen cyanamide]
populations of the Dorylaimida nematodes (Dorylaimida nematodes): affected
nematicidal activity against the reniform nematodes [1]: without loss of nematicidal activity
populations of the microbivorous nematodes [2]: not significantly affected
